Tested on: hypertensive subjects
Test: Seated automated office blood pressure (AOBP) in randomized, placebo-controlled, dose-ranging study
Assay type: in vivo, human
Conditions: Part 1, 100 mg QD
Experimental: A randomized, double-blinded, placebo-controlled, dose-ranging, multicenter study was conducted to evaluate the effect of orally administered Compound A HBr on blood pressure for the treatment of hypertension in male and female subjects ≥18 years of age.
The study consists of two parts. For enrollment into Part 1 of the study, a subject's value of plasma renin activity (PRA) must be ≤1 ng/mL/h based on morning measurement. If the value of PRA >1 ng/mL/h based on morning measurement, then subjects may be eligible to enter Part 2 of the study.
For Part 1, 163 enrolled subjects ≥18 years of age were randomized into 6 equal treatment groups (1:1:1:1:1:1) to 12.5 mg BID, 25 mg BID, 12.5 mg QD, 50 mg QD, 100 mg QD, or placebo. After a review of interim clinical data, the 2 lowest dose levels (12.5 mg QD and 12.5 mg BID) were stopped for future randomization due to a lack of consistent meaningful reduction of blood pressure, but the patients randomized to that point remained in the study through completion. Thus, after the review of interim clinical data, subjects were randomized into 4 equal treatment groups (1:1:1:1) to 25 mg BID, 50 mg QD, 100 mg QD, or placebo.
For Part 2, 36 enrolled subjects ≥18 years of age were randomized (5:1) to either 100 mg QD Compound A HBr or placebo such that the Compound A HBr treatment group consisted of approximately 30 subjects and the placebo treatment group will consist of approximately 6 subjects.
Subjects orally administered the assigned study drug (Compound A HBr or placebo) according to the assigned dosing regimen for 8 weeks beginning on Study Day 1. All subjects in Part 1 (regardless of dosing group) received BID dosing to preserve the integrity of the blind; active drug is administered as the morning dose for all QD dose groups. Subjects returned to the research facility or were seen by the clinical investigator or approved home health care professional at the end of Study Weeks 1, 2, 3, 4, 5, 6, 7, and 8 (±2 days) for protocol-defined efficacy and safety assessments and procedures, assessment of adverse events (AEs), and confirmation of compliance with study drug usage. Subjects also completed a telephone visit and blood pressure (BP) check at home approximately 3 days post last dose of study drug. Subjects attended up to 14 full clinic visits, including a pre-Screening visit, a Screening/start of Placebo Run-in visit, a second visit during Placebo Run-in, a clinic visit to initiate the ABPM procedure, a Randomization visit, 8 weekly visits during double-blind treatment, and an end-of-study visit scheduled 4 weeks after the last study treatment for final efficacy and safety assessments.
An automated oscillometric sphygmomanometer device was used to measure the subjects' systolic and diastolic blood pressure in office after approximately 5 minutes of rest in the seated position.
The primary endpoint is the change in office-measured (mean of last 2 of 5 unattended measurements using an automated oscillometric sphygmomanometer device after approximately 5 minutes of rest in the seated position) systolic blood pressure (SBP) from baseline to the end of Study Week 8.
Secondary endpoints of this study were: • (a) Change in 24-hour ambulatory blood pressure monitoring (ABPM) parameters (systolic and diastolic) from baseline to the end of Study Week 7. • (b) Change in office-measured SBP from baseline to the end of Study Weeks 1, 2, 3, 4, 5, 6, and 7. • (c) Change in office-measured diastolic blood pressure (DBP) from baseline to the end of Study Weeks 1, 2, 3, 4, 5, 6, 7, and 8. • (d) Proportion of subjects who achieve office-measured BP of ≤130/80 mm Hg by the end of Study Week 8.

[1] = Systolic Blood Pressure Tertile at Baseline High
[2] = Systolic Blood Pressure Tertile at Baseline Low
[3] = Systolic Blood Pressure Tertile at Baseline Middle
[4] = Thiazide Diuretic Use at Baseline No

CC(=O)N[C@H]1CC[C@H](NC(=O)CN2CCN(c3nncc(-c4ccc(C)cc4)n3)CC2)CC1 [Compound A HBr]
Mean (SD) Automated Office-Measured Diastolic Blood Pressure at Wk 8 (Age ≥80 yr): 65.75 (11.73) mmHg | Mean (SD) Automated Office-Measured Systolic Blood Pressure at Wk 8 (Age ≥80 yr): 125.00 (8.04) mmHg | Mean (SD) Change from Baseline at Week 8 in Automated Office-Measured Diastolic Blood Pressure (Age ≥80 yr): −4.75 (8.03) mmHg | Mean (SD) Change from Baseline at Week 8 in Automated Office-Measured Systolic Blood Pressure (Age ≥80 yr): −18.13 (12.34) mmHg | Mean (SD) Automated Office-Measured Diastolic Blood Pressure at Wk 8 (BMI 25−30 kg/m^2): 72.67 (9.33) mmHg | Mean (SD) Change from Baseline at Week 8 in Automated Office-Measured Diastolic Blood Pressure (BMI 25−30 kg/m^2): −6.50 (7.61) mmHg | Mean (SD) Automated Office-Measured Diastolic Blood Pressure at Wk 8 (BMI <25 kg/m^2): 78.33 (19.14) mmHg | Mean (SD) Change from Baseline at Week 8 in Automated Office-Measured Diastolic Blood Pressure (BMI <25 kg/m^2): −0.67 (7.01) mmHg | Mean (SD) Automated Office-Measured Diastolic Blood Pressure at Wk 8 (BMI >30 kg/m^2): 71.42 (7.10) mmHg | Mean (SD) Change from Baseline at Week 8 in Automated Office-Measured Diastolic Blood Pressure (BMI >30 kg/m^2): −6.88 (7.81) mmHg | Mean (SD) Automated Office-Measured Systolic Blood Pressure at Wk 8 (BMI at baseline 25-30 kg/m^2): 129.67 (10.05) mmHg | Mean (SD) Change from Baseline at Week 8 in Automated Office-Measured Systolic Blood Pressure (BMI at baseline 25-30 kg/m^2): −11.17 (11.94) mmHg | Mean (SD) Automated Office-Measured Systolic Blood Pressure at Wk 8 (BMI at baseline <25 kg/m^2): 146.00 (18.33) mmHg | Mean (SD) Change from Baseline at Week 8 in Automated Office-Measured Systolic Blood Pressure (BMI at baseline <25 kg/m^2): −7.83 (17.47) mmHg | Mean (SD) Automated Office-Measured Systolic Blood Pressure at Wk 8 (BMI at baseline >30 kg/m^2): 129.00 (15.28) mmHg | Mean (SD) Change from Baseline at Week 8 in Automated Office-Measured Systolic Blood Pressure (BMI at baseline >30 kg/m^2): −18.50 (13.40) mmHg | Mean (SD) Automated Office-Measured Diastolic Blood Pressure at Wk 8 (Race Black or AA): 71.92 (10.83) mmHg | Mean (SD) Automated Office-Measured Systolic Blood Pressure at Wk 8 (Race Black or AA): 129.92 (16.18) mmHg | Mean (SD) Change from Baseline at Week 8 in Automated Office-Measured Diastolic Blood Pressure (Race Black or AA): −7.38 (7.65) mmHg | Mean (SD) Change from Baseline at Week 8 in Automated Office-Measured Systolic Blood Pressure (Race Black or AA): −17.13 (11.55) mmHg | Mean (SD) Automated Office-Measured Diastolic Blood Pressure at Wk 8 (Race Other): 74.00 (8.26) mmHg | Mean (SD) Automated Office-Measured Systolic Blood Pressure at Wk 8 (Race Other): 132.54 (12.47) mmHg | Mean (SD) Change from Baseline at Week 8 in Automated Office-Measured Diastolic Blood Pressure (Race Other): −3.69 (7.91) mmHg | Mean (SD) Change from Baseline at Week 8 in Automated Office-Measured Systolic Blood Pressure (Race Other): −11.27 (14.54) mmHg | Mean (SD) Automated Office-Measured Diastolic Blood Pressure at Wk 8 (Seated SBP Tertile High): 72.11 (11.78) mmHg | Mean (SD) Change from Baseline at Week 8 in Automated Office-Measured Diastolic Blood Pressure (Seated SBP Tertile High): −8.78 (8.56) mmHg | Mean (SD) Automated Office-Measured Diastolic Blood Pressure at Wk 8 (Seated SBP Tertile Low): 73.86 (11.01) mmHg | Mean (SD) Change from Baseline at Week 8 in Automated Office-Measured Diastolic Blood Pressure (Seated SBP Tertile Low): −0.29 (6.44) mmHg | Mean (SD) Automated Office-Measured Diastolic Blood Pressure at Wk 8 (Seated SBP Tertile Middle): 73.22 (5.97) mmHg | Mean (SD) Change from Baseline at Week 8 in Automated Office-Measured Diastolic Blood Pressure (Seated SBP Tertile Middle): 6.17 (6.64) mmHg | Mean (SD) Automated Office-Measured Diastolic Blood Pressure at Wk 8 (Sex Female): 70.87 (10.51) mmHg | Mean (SD) Automated Office-Measured Systolic Blood Pressure at Wk 8 (Sex Female): 132.40 (15.95) mmHg | Mean (SD) Change from Baseline at Week 8 in Automated Office-Measured Diastolic Blood Pressure (Sex Female): −3.67 (7.27) mmHg | Mean (SD) Change from Baseline at Week 8 in Automated Office-Measured Systolic Blood Pressure (Sex Female): −13.17 (12.05) mmHg | Mean (SD) Automated Office-Measured Diastolic Blood Pressure at Wk 8 (Sex Male): 76.20 (6.81) mmHg | Mean (SD) Automated Office-Measured Systolic Blood Pressure at Wk 8 (Sex Male): 129.60 (11.45) mmHg | Mean (SD) Change from Baseline at Week 8 in Automated Office-Measured Diastolic Blood Pressure (Sex Male): −8.15 (8.28) mmHg | Mean (SD) Change from Baseline at Week 8 in Automated Office-Measured Systolic Blood Pressure (Sex Male): −15.45 (15.48) mmHg | Mean (SD) Automated Office-Measured Systolic Blood Pressure at Wk 8 [1]: 139.11 (15.36) mmHg | Mean (SD) Change from Baseline at Week 8 in Automated Office-Measured Systolic Blood Pressure [1]: −19.06 (12.91) mmHg | Mean (SD) Automated Office-Measured Systolic Blood Pressure at Wk 8 [2]: 129.86 (9.26) mmHg | Mean (SD) Change from Baseline at Week 8 in Automated Office-Measured Systolic Blood Pressure [2]: −4.71 (8.58) mmHg | Mean (SD) Automated Office-Measured Systolic Blood Pressure at Wk 8 [3]: 124.56 (13.30) mmHg | Mean (SD) Change from Baseline at Week 8 in Automated Office-Measured Systolic Blood Pressure [3]: −16.39 (13.97) mmHg | Automated Office-Measured Diastolic Blood Pressure, Week 8, Mean (SD) [4]: 72.40 (10.54) mmHg | Mean (SD) Automated Office-Measured Systolic Blood Pressure at Wk 8 [4]: 135.80 (9.10) mmHg

— patent US20260053811A1, “METHODS OF TREATING HYPERTENSION IN OBESE SUBJECTS” (Mineralys Therapeutics, Inc., priority 2022, published 2026)
